Reference: paper PMC4871512, “Drug-Based Lead Discovery: The Novel Ablative Antiretroviral Profile of Deferiprone in HIV-1-Infected Cells and in HIV-Infected Treatment-Naive Subjects of a Double-Blind, Placebo-Controlled, Randomized Exploratory Trial” (PLoS ONE, 2016)

Key:
[1] = Proof-of-concept trial: safety and tolerability
Experimental: Since we were dosing a population with previously untested tolerance for deferiprone, the exploratory trial of this orally administered drug was conducted under uninterrupted medical observation and standardized conditions, e.g. uniform diet to minimize confounding food effects, in a specialized in-patient research unit for Phase I protocols. In-unit supervision lasted for the entire one-week duration of deferiprone ingestion (first stage of protocol S1 in Fig 6), which was intentionally restricted to the oral intake of in total just 17 doses. After discharge from the research unit, outpatient follow-up occurred at 4 weeks and 8 weeks (second stage of protocol S2 in Fig 6). […] Using drug toxicity grading criteria proposed by NIH [97, 98], we defined the following tolerability profile:
(§1) Eligible for enrollment were volunteers of both genders, between 18 and 60 years old, healthy or HIV-infected with CD4 count ≥ 300/mm^3, viral load of ≥ 10,000 copies/ml, and absence of active infectious disease; AIDS-defining condition; febrile illness; liver or kidney disease; hypersensitivity to test material; and medication requirement. The protocol involved a screening visit; a pharmacokinetic and antiretroviral study requiring admission to a specialized Phase I research unit for a week of on-drug treatment, with multiple blood draws from a peripheral vein after oral intake of the first deferiprone dose, either 33 mg/kg or 50 mg/kg, and at least three repeat blood draws (first stage of protocol); an off-drug observation period of eight weeks, which comprised at least two repeat visits (second stage of protocol); and an exit visit. Enrollment complied with the applicable standard-of-care specified in the ‘Clinical Guidelines for the Management of HIV & AIDS in Adults and Adolescents’, National Department of Health, Republic of South Africa. Primary parameters included safety and tolerability (e.g. vital signs, laboratory variables, cardiac monitoring by ECG) and antiretroviral activity (e.g. RNA copies of HIV-1). Secondary parameters included pharmacokinetic variables (e.g. peak serum concentration) in serum, drawn from a peripheral vein at fixed times (0, 0.5, 1, 1.5, 2, 3, 4, 6, 9, 12) after the ingestion of the first dose on Day 1 of the study. The concentration of the nonconjugated, chelation-competent form of deferiprone in serum was determined by UV detection at 280 nm, after separation via reversed-phase HPLC under isocratic conditions. The lower limit of deferiprone quantitation was 1.466 μM, or 0.204 μg/ml. HIV-1 RNA was measured as described and used as log10-transformed parameter in all calculations.
26 consecutive subjects were randomly enrolled in the IRB-approved proof-of-concept trial and gave written informed consent to be studied (Supporting Information, S2 Text); recruitment of trial subjects commenced in November 2006 and follow-up terminated in April 2008. Double-blind enrollment comprised i) 18 HIV-infected, asymptomatic and—according to the applicable standard-of-care [74]–cART-ineligible individuals, who either received placebo (N = 4 [Protocol Group 4]) or deferiprone (Ferriprox®) administered orally every 8 hours in three equal doses under medical supervision, totaling initially either 99 mg/kg/day (N = 7 [Protocol Group 1]) or subsequently 150 mg/kg/day (N = 7 [Protocol Group 3]); and ii) 8 uninfected individuals either on placebo (N = 2 [Protocol Group 5]) or daily deferiprone (N = 6; 150 mg/kg/day [Protocol Group 2]); CD4 cells were quantified before, during, and at the end of the one-week treatment period. […] Visually identical tablets of deferiprone / placebo were administered once on Days 1 and 7, and thrice on Days 2–6 of protocol.

[2] = test system: HIV-1; assay: Proof-of-concept trial: HIV-1 RNA in plasma of treatment-naive HIV-infected subjects (ICR, ICD); format: in vivo, human; conditions: for period for which the decrease of HIV-1 RNA persists off-drug: 7-day / 17-dose course, responsive cohort; for ICR relative to pre-treatment level: regimen-compliant responsive sub-group (Subjects 1, 5, 20, 24)
Experimental: Cell-free supernatants were used for p24 and HIV-1 RNA measurements. p24 core antigen in the supernatant was quantified by ELISA (Retrotek HIV-1 p24®; ZeptoMetrix Corp.; Buffalo, NY). HIV-1 RNA copy number in the supernatant of PBMC cultures and in plasma of trial subjects enrolled in the exploratory deferiprone trial was determined with a PCR-based and FDA-approved assay (Amplicor HIV-1 Monitor®; Roche Diagnostics Corp.; Indianapolis, IN). For clinical samples, the assay was used per the Standard Specimen Processing Procedure (sensitivity limit 400 copies/ml); for cell culture samples, the assay was used in both the Standard Specimen Processing and the UltraSensitive Specimen Processing Procedure (sensitivity limit 50 copies/ml). If not specified further, the term “log10” designates the amount of HIV-1 RNA in the dimensions [log10 / ml]. The Roche Amplicor HIV-1 DNA Test (Roche Diagnostics Corp.; Indianapolis, IN) was used for detection of HIV-1 DNA with the primer pair SK431/462, which amplifies a highly conserved region of the gag genome of HIV-1 subtype B DNA. […] Apoptotic DNA fragmentation was quantified flow-cytometrically, using a terminal deoxynucleotide transferase dUTP nick end-labeling (TUNEL) assay (APO-BRDU™; Phoenix Flow Systems; San Diego, CA). All experiments and assays were performed at least in duplicate.
as §1
26 consecutive subjects were randomly enrolled in the IRB-approved proof-of-concept trial and gave written informed consent to be studied (Supporting Information, S2 Text); recruitment of trial subjects commenced in November 2006 and follow-up terminated in April 2008.

[3] = test system: HIV-infected cell lines and HIV-infected primary cells; conditions: cited from earlier work
[4] = after 8 weeks off-drug, P = 0.003

With `Cc1c(O)c(=O)ccn1C` [deferiprone, 3-hydroxy-1,2-dimethylpyridin-4-one] the “enrollees who completed the study” value ([1]; 99 mg group) was 86%, the “persons with elevations of transaminases and γ-glutamyl transpeptidase” value ([1]; 99 mg group, N = 7 HIV-infected, end of the treatment week) was 2 and the “grade of transaminase elevations” value ([1]; 99 mg group, the 2 affected persons) was “Grade 3 and Grade 2”. The “grade of γ-glutamyl transpeptidase elevations” value ([1]; 99 mg group, the 2 affected persons, respectively) was “Grade 1 and Grade 2”, the “enrollees who completed the study” value ([1]; 150 mg group overall, N = 13) was 61% and the “persons with a rise in serum liver enzymes” value ([1]; 150 mg group, HIV-uninfected) was 2 of 6. The hematologic adverse event ([1]; 150 mg group, Subject 22 (cmax 285 μM), medication discontinued on Day 3) was “agranulocytosis (Grade 4 absolute neutrophil count)”, the “grade of γ-glutamyl transpeptidase elevation” value ([1]; 150 mg group, Subject 22 and Subject 24) was “Grade 2” and the “persons with a rise in serum liver enzymes” value ([1]; 150 mg group, asymptomatic HIV-infected) was 4 of 7. The “grade of transaminase elevations” value ([1]; 150 mg group, the four affected HIV-infected persons) was “three Grade 2 and one Grade 4”, the protocol completion ([1]; 150 mg group, those with HIV infection) was 57% and the “rise in serum liver enzymes, grade” value ([1]; HIV-uninfected persons on 150 mg/day, Subject 9 and Subject 12) was “Grade 1 transaminase elevation”. The “spontaneous correction of the neutrophil count” value ([1]; Subject 22) was “within two weeks off-drug”, the “spontaneous correction of the liver function abnormality” value ([1]; Subject 22 and Subject 24) was “within one week off-drug” and the “heart rate-corrected QT interval on-drug” value ([1]; Subject 317, 150 mg group, Grade 2 QTc prolongation) was 491 ms. For the same compound, the “increase of heart rate-corrected QT interval” value ([1]; Subject 317, 150 mg group, baseline 441 ms, first stage, judged likely not causally linked) was 50 ms, the “off-drug rate-corrected QT interval” value ([1]; Subject 317, several days after the end of drug intake) was “up to 488 ms” and the “effect of dose increase on tolerability” value ([1]; in vivo) was “markedly reduced the tolerability”. For the same compound, the neurological adverse event ([1]; one HIV-uninfected person, at 6 and 8 days after the end of deferiprone treatment) was “convulsive episodes”, the “protocol-completing subjects with no viral load change” value ([2]; 99 mg group (33 mg/kg/dose orally three times per day)) was 66% and the “ICR after the one-week treatment” value ([2]; 99 mg group, Subjects 1, 2, 5, achieved threshold and had a viral response) was -0.36 log10. The “ICR after the one-week treatment” value ([2]; 99 mg group, Subjects 4, 6, 8, did not achieve the ≥150 μM threshold) was “+0.23 log10”, the “ICD between threshold-achieving responders and non-achievers” value ([2]; 99 mg group, one-week treatment, P = 0.004) was 0.59 log10 and the “within-subject variability of HIV-1 RNA reached after the one-week treatment” value ([2]; 99 mg/kg group) was -0.45 log10. The “within-subject variability of HIV-1 RNA reached after the one-week treatment” value ([2]; 150 mg group) was -0.53 log10, the “protocol-completing subjects with no viral load change” value ([2]; 150 mg group (50 mg/kg/dose orally three times per day)) was 25% and the “ICR after the one-week treatment” value ([2]; 150 mg group, Subjects 20, 22, 24, cmax ≥150 μM) was -0.39 log10. For the same compound, the “period for which the decrease of HIV-1 RNA persists off-drug” value [2] was 8 weeks, the “period for which the decrease of HIV-1 RNA persists off-drug” value ([2]; listed as Deferiprone) was “at least 8 weeks” and the “off-drug retention of the HIV-1 RNA reduction as multiple of the drug's half-life” value ([2]; 8 weeks off-drug after 17 doses) was “over 670 times”. The “average level of HIV-1 RNA” value ([2]; 'decrease' cohort, after 4 weeks off-drug) was 4.44 log10, the “average level of HIV-1 RNA” value ([2]; 'decrease' cohort, after 8 weeks off-drug) was 4.52 log10 and the “average level of HIV-1 RNA” value ([2]; 'decrease' cohort, after 7 days (4.90 log10 initially)) was 4.53 log10. The “average level of HIV-1 RNA” value ([2]; 'no-decrease' cohort, after 4 weeks off-drug) was 4.83 log10, the “average level of HIV-1 RNA” value ([2]; 'no-decrease' cohort, after 8 weeks off-drug) was 4.70 log10 and the “average level of HIV-1 RNA” value ([2]; 'no-decrease' cohort, after 7 days (4.53 log10 initially)) was 4.74 log10. For the same compound, the “ICR after 8 weeks off-drug” value ([2]; DTD 'decrease' cohort) was -0.31 log10, the “ICR at the end of the first stage (S1, Day 7 vs Day 1)” value ([2]; DTD 'decrease' cohort, N = 6) was -0.37 log10 and the “ICR after 8 weeks off-drug” value ([2]; DTD 'no-decrease' cohort) was “+0.17 log10”. The “ICR at the end of the first stage (S1, Day 7 vs Day 1)” value ([2]; DTD 'no-decrease' cohort, N = 5) was “+0.21 log10”, the “ICR at the end of 8 weeks off-drug” value ([2]; Group A, cmax ≥150 μM) was -0.28 log10 and the “intra-cohort response (ICR), HIV-1 RNA Day 7 relative to Day 1” value ([2]; Group A, cmax ≥150 μM on either dosage, N = 7, 7 days on-drug) was -0.27 log10. For the same compound, the “subjects who achieved the threshold (cmax ≥150 μM) and showed a decline in viral load” value ([2]; Group A, one-week treatment) was 6 of the 7, the “viral load in the 4 subjects who did not achieve the threshold” value ([2]; Group B, one-week treatment) was “did not show a decline in viral load” and the “ICR at the end of 8 weeks off-drug” value ([2]; Group B, threshold-failing) was “+0.24 log10”. For the same compound, the “change in viral load during the one-week treatment” value ([2]; Subject 19, 150 mg group, cmax 128 μM) was “+0.02 log10”, the “ICD Group A vs Group B” value [2, 4] was 0.52 log10 and the “ICD regimen-compliant 'decrease' sub-group vs 'no-decrease' cohort” value [2, 4] was 0.61 log10. For the same compound, the “ICD 'decrease' vs 'no-decrease' cohort” value ([2]; after 8 weeks off-drug, P = 0.008) was 0.48 log10, the “intercohort difference (ICD) Group A vs Group B” value ([2]; after one week on-drug) was 0.44 log10 and the “ICD 'decrease' vs 'no-decrease' cohort” value ([2]; end of first stage S1, P = 0.0001) was 0.58 log10. For the same compound, the “intra-cohort response (ICR), HIV-1 RNA Day 7 relative to Day 1” value ([2]; human, in vivo) was “+0.17 log10”, the “ICR relative to pre-treatment level” value ([2]; after 8 weeks off-drug) was -0.38 log10 and the “ICR relative to pre-treatment level” value ([2]; after 7 days on-drug) was -0.40 log10. The “HIV-1 inhibition in chronically infected cell lines” value ([3]; 200 μM deferiprone) was “near-maximal HIV-1 inhibition” and the “ribosomal presence of gag mRNA, amount of intra- and extracellular p24, budding of viral particles” value ([3]; treated HIV-infected cells) was “suppress”.
